Patent publication US10538498B2, “1,3,4-oxadiazole sulfonamide derivative compounds as histone deacetylase 6 inhibitor, and the pharmaceutical composition comprising the same” (Chong Kun Dang Pharmaceutical Corp., priority 2015, dated 2020)

How the values were obtained:
[1] = molecular target: T1, human recombinant HDAC6 (Homo sapiens, UniProt Q9UBN7); test: HDAC6 enzyme activity inhibition assay (HDAC Fluorimetric Drug Discovery Kit); type: biochemical; settings: for HDAC6 selectivity (fold): HDAC1 vs HDAC6; for IC50: same protocol as the HDAC1 enzyme activity test
T1 construct: purchased Calbiochem 382180
T1 sequence (Q9UBN7 1-1215): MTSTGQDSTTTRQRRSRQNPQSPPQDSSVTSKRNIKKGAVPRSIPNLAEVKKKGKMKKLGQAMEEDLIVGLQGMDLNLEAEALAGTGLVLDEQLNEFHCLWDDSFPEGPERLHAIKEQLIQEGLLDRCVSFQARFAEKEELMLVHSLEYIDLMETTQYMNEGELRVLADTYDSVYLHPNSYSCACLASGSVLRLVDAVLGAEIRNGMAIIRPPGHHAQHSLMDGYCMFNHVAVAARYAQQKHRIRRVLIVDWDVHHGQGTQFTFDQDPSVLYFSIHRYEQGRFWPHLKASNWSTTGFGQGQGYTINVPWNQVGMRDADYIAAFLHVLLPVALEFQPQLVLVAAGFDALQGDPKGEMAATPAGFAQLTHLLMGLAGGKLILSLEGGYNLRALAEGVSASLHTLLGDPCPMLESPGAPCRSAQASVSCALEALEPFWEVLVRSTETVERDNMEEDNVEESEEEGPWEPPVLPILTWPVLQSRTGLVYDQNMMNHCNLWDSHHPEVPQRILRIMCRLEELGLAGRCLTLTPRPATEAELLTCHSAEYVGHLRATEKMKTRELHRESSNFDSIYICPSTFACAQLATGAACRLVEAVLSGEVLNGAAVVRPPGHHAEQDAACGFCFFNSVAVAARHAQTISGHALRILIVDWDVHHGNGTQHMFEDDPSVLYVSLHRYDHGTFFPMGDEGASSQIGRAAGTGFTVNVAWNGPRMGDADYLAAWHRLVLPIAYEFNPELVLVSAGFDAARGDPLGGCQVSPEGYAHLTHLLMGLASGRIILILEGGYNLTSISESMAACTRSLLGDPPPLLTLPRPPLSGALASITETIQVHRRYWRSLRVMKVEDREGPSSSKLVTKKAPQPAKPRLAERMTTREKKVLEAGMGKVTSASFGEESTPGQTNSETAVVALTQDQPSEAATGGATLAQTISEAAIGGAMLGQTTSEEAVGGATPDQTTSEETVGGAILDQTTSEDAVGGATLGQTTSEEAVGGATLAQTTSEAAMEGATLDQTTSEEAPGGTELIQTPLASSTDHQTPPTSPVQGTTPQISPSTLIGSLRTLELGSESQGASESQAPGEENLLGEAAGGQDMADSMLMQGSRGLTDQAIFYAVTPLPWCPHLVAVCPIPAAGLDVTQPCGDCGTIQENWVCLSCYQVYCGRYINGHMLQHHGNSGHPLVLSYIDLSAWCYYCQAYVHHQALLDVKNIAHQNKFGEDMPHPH
In short: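 IC50s derived from fluorescence (Ex 360, Em 460) read after a 30-min developer step. Beforehand, compounds in 5-fold dilution series reacted 60 min at 30° C with 0.3 μg human recombinant enzyme and 10 μM Fluor de Lys-SIRT1 substrate.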

[2] = molecular target: T2, human recombinant HDAC1 (Homo sapiens, UniProt Q13547); test: HDAC1 enzyme activity inhibition assay (HDAC Fluorimetric Drug Discovery Kit); type: biochemical; settings: 0.3 μg enzyme, 10 μM substrate, 30° C., 60 minutes
T2 construct: purchased Enzo Life Science BML-SE456
T2 sequence (Q13547 whole entry): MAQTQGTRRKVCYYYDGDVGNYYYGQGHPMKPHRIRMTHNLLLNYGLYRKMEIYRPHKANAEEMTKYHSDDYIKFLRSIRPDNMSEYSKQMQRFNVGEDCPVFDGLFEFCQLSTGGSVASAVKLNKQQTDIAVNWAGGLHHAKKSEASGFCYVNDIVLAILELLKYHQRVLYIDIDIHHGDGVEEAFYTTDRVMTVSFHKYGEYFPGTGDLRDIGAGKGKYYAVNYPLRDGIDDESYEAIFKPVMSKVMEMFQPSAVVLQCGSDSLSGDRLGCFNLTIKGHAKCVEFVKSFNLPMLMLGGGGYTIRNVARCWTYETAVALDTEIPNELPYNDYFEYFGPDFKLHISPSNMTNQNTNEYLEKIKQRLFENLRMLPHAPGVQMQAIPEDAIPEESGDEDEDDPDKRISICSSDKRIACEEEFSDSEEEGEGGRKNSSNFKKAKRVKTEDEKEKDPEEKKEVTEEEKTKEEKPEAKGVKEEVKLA
Protocol: In order to examine the HDAC6 selectivity of the compounds of formula I of the present invention by HDAC1 and HDAC6 enzymatic activity inhibition assays, an experiment was performed using a conventional substance as a control.
HDAC enzyme activity was measured using a HDAC Fluorimetric Drug Discovery Kit (BML-AK511, 516, Enzo Life Science). For the HDAC1 enzyme activity test, human recombinant HDAC1 (BML-SE456) was used as an enzyme source, and Fluor de Lys®-“SIRT1 (BNL-KI177) was used as a substrate. A 5-fold dilution of the compound was seeded into a 96-well plate, and then 0.3 μg of the enzyme and 10 μM of the substrate were added to each well of the plate and allowed to react at 30° C. for 60 minutes. Then, Fluor de Lys®-Developer II (BML-KI176) was added thereto and allowed to react for 30 minutes, after which the fluorescence value (Ex 360, Em 460) was measured using a multi-plate reader (Flexstation 3, Molecular Device). The HDAC6 enzyme was tested using human recombinant HDAC6 (382180) (Calbiochem) according to the same protocol as the HDAC1 enzyme activity test method. Based on the resulting values, each IC50 value was calculated using GraphPad Prism4.0 program.

Compound	HDAC6 selectivity (fold) [1] [fold]	IC50 [1] [nM]	IC50 [2] [nM]
CS(=O)(=O)N(Cc1ccc(-c2nnc(C(F)(F)F)o2)cc1)c1cccnc1 [Compound 11088, N-(pyridin-3-yl)-N-(4-(5-(trifluoromethyl)-1,3,4-oxadiazol-2-yl)benzyl)methanesulfonamide]	404	127	51400
CS(=O)(=O)N(Cc1ccc(-c2nnc(C(F)(F)F)o2)cc1F)c1cccnc1 [Compound 11089, N-(2-fluoro-4-(5-(trifluoromethyl)-1,3,4-oxadiazol-2-yl)benzyl)-N-(pyridin-3-yl)methanesulfonamide]	957	50	47900
CS(=O)(=O)N(Cc1ccc(-c2nnc(C(F)(F)F)o2)cc1)c1ccccc1 [Compound 11167, N-phenyl-N-(4-(5-(trifluoromethyl)-1,3,4-oxadiazol-2-yl)benzyl)methanesulfonamide]	900	38	34200
CS(=O)(=O)N(Cc1ccc(-c2nnc(C(F)(F)F)o2)cc1F)c1ccccc1 [Compound 11169, N-(2-fluoro-4-(5-(trifluoromethyl)-1,3,4-oxadiazol-2-yl)benzyl)-N-phenylmethanesulfonamide]	1081	38	41100
CS(=O)(=O)N(Cc1ccc(-c2nnc(C(F)(F)F)o2)cn1)c1ccccc1 [Compound 11171, N-phenyl-N-((5-(5-(trifluoromethyl)-1,3,4-oxadiazol-2-yl)pyridin-2-yl)methyl)methanesulfonamide]	1267	21	26600
CS(=O)(=O)N(Cc1ccc(-c2nnc(C(F)(F)F)o2)nc1)c1ccccc1 [Compound 11173, N-phenyl-N-((6-(5-(trifluoromethyl)-1,3,4-oxadiazol-2-yl)pyridin-3-yl)methyl)methanesulfonamide]	43	661	28600
Cc1cccc(N(Cc2ccc(-c3nnc(C(F)(F)F)o3)cc2F)S(C)(=O)=O)c1 [Compound 11177, N-(2-fluoro-4-(5-(trifluoromethyl)-1,3,4-oxadiazol-2-yl)benzyl)-N-(m-tolyl)methanesulfonamide]	332	57	18900
COc1cccc(N(Cc2ccc(-c3nnc(C(F)(F)F)o3)cc2F)S(C)(=O)=O)c1 [Compound 11179, N-(2-fluoro-4-(5-(trifluoromethyl)-1,3,4-oxadiazol-2-yl)benzyl)-N-(3-methoxyphenyl)methanesulfonamide]	211	37	7810
CS(=O)(=O)N(Cc1ccc(-c2nnc(C(F)F)o2)c(F)c1)c1ccccc1 [Compound 11184, N-(4-(5-(difluoromethyl)-1,3,4-oxadiazol-2-yl)-3-fluorobenzyl)-N-phenylmethanesulfonamide]	63	36	2270
CS(=O)(=O)N(Cc1ccc(-c2nnc(C(F)(F)F)o2)cc1F)c1cccc(Cl)c1 [Compound 11190, N-(3-chlorophenyl)-N-(2-fluoro-4-(5-(trifluoromethyl)-1,3,4-oxadiazol-2-yl)benzyl)methanesulfonamide]	151	129	19500
COc1ccc(N(Cc2ccc(-c3nnc(C(F)(F)F)o3)cc2F)S(C)(=O)=O)cc1 [Compound 11192, N-(2-fluoro-4-(5-(trifluoromethyl)-1,3,4-oxadiazol-2-yl)benzyl)-N-(4-methoxyphenyl)methanesulfonamide]	108	65	7000
CS(=O)(=O)N(Cc1ccc(-c2nnc(C(F)(F)F)o2)cc1F)c1cccc(Br)c1 [Compound 11196, N-(3-bromophenyl)-N-(2-fluoro-4-(5-(trifluoromethyl)-1,3,4-oxadiazol-2-yl)benzyl)methanesulfonamide]	441	65	28700
CS(=O)(=O)N(Cc1ccc(-c2nnc(C(F)(F)F)o2)cn1)c1cccc(F)c1 [Compound 11216, N-(3-fluorophenyl)-N-((5-(5-(trifluoromethyl)-1,3,4-oxadiazol-2-yl)pyridin-2-yl)methyl)methanesulfonamide]	368	76	28000
CS(=O)(=O)N(Cc1ccc(-c2nnc(C(F)(F)F)o2)cc1F)c1ccc(C(F)(F)F)cc1 [Compound 11220, N-(2-fluoro-4-(5-(trifluoromethyl)-1,3,4-oxadiazol-2-yl)benzyl)-N-(4-(trifluoromethyl)phenyl)methanesulfonamide]	845	31	26200
O=S(=O)(C1CCN(C2CC(F)C2)CC1)N(Cc1ccc(-c2nnc(C(F)F)o2)cn1)c1cccc(Cl)c1 (stereo not drawn) [Compound 11841, N-(3-chlorophenyl)-N-((5-(5-(difluoromethyl)-1,3,4-oxadiazol-2-yl)pyridin-2-yl)methyl)-1-(3-fluorocyclobutyl)piperidine-4-sulfonamide]	2790	35.8	
O=S(=O)(CCN1CC=C(c2ccc(Cl)cc2)CC1)N(Cc1ccc(-c2nnc(C(F)F)o2)cc1)c1ccccc1 [Compound 11842, 2-(4-(4-chlorophenyl)-3,6-dihydropyridin-1(2H)-yl)-N-(4-(5-(difluoromethyl)-1,3,4-oxadiazol-2-yl)benzyl)-N-phenylethane-1-sulfonamide]	121	826	
O=S(=O)(CCN1Cc2cccc3cccc(c23)C1)N(Cc1ccc(-c2nnc(C(F)F)o2)cc1)c1ccccc1 [Compound 11843, 2-(1H-benzo[de]isoquinolin-2(3H)-yl)-N-(4-(5-(difluoromethyl)-1,3,4-oxadiazol-2-yl)benzyl)-N-phenylethane-1-sulfonamide]	101	994	
O=S(=O)(CCN1CCN(c2noc3ccccc23)CC1)N(Cc1ccc(-c2nnc(C(F)F)o2)cc1)c1ccccc1 [Compound 11844, 2-(4-(benzo[d]isoxazol-3-yl)piperazin-1-yl)-N-(4-(5-(difluoromethyl)-1,3,4-oxadiazol-2-yl)benzyl)-N-phenylethane-1-sulfonamide]	172	581	
COc1ccccc1C1CCN(CCS(=O)(=O)N(Cc2ccc(-c3nnc(C(F)F)o3)cc2)c2ccccc2)CC1 [Compound 11845, N-(4-(5-(difluoromethyl)-1,3,4-oxadiazol-2-yl)benzyl)-2-(4-(2-methoxyphenyl)piperidin-1-yl)-N-phenylethane-1-sulfonamide]	103	973	
NC(=O)[C@@H]1C[C@@H](O)CN1CCS(=O)(=O)N(Cc1ccc(-c2nnc(C(F)F)o2)cn1)c1ccccc1 [Compound 11849, (2S,4R)-1-(2-(N-((5-(5-(difluoromethyl)-1,3,4-oxadiazol-2-yl)pyridin-2-yl)methyl)-N-phenylsulfamoyl)ethyl)-4-hydroxypyrrolidine-2-carboxamide]	1605	62.3	
